According to ChEMBL document CHEMBL3808371, “Design, synthesis and biological evaluation of diaziridinyl quinone isoxazole hybrids” (Eur J Med Chem, 2016):
In brackets after ≈: the same amount, converted by molar mass.

What was measured:
[1] = Cytotoxicity against human PC3 cells after 72 hrs by XTT assay; assay type: functional, cell-based; details: PC-3, 72 h
[2] = tested on: Candida albicans; assay: Antimicrobial activity against Candida albicans MTCC 3017 after 24 hrs by well diffusion method; assay type: functional; details: MTCC 3017, 24 h
[3] = tested on: Pseudomonas aeruginosa; assay: Antimicrobial activity against Pseudomonas aeruginosa MTCC 2453 after 24 hrs by well diffusion method; assay type: functional; details: MTCC 2453, 24 h
[4] = tested on: Staphylococcus aureus; assay: Antibiofilm activity against Staphylococcus aureus MTCC 96 after 24 hrs by crystal violet staining based assay; assay type: functional, organism-based; details: MTCC 96, 24 h
[5] = tested on: A549; assay: Cytotoxicity against human A549 cells after 72 hrs by XTT assay; assay type: functional, cell-based; details: A549, 72 h
[6] = tested on: Staphylococcus aureus; assay: Bactericidal activity against Staphylococcus aureus MTCC 96 after 24 hrs by serial dilution method; assay type: functional; details: MTCC 96, 24 h
[7] = tested on: Staphylococcus aureus; assay: Antimicrobial activity against Staphylococcus aureus MLS16 MTCC 2940 after 24 hrs by well diffusion method; assay type: functional; details: MLS16 MTCC 2940, 24 h
[8] = tested on: Escherichia coli; assay: Antimicrobial activity against Escherichia coli MTCC 739 after 24 hrs by well diffusion method; assay type: functional; details: MTCC 739, 24 h
[9] = tested on: Staphylococcus aureus; assay: Antimicrobial activity against Staphylococcus aureus MTCC 96 after 24 hrs by well diffusion method; assay type: functional; details: MTCC 96, 24 h
[10] = tested on: Bacillus subtilis; assay: Antibiofilm activity against Bacillus subtilis MTCC 121 after 24 hrs by crystal violet staining based assay; assay type: functional, organism-based; details: MTCC 121, 24 h
[11] = tested on: A549; assay: Selectivity ratio of IC50 for human PC3 cells to IC50 for human A549 cells; assay type: functional
[12] = tested on: Micrococcus luteus; assay: Bactericidal activity against Micrococcus luteus MTCC 2470 after 24 hrs by serial dilution method; assay type: functional; details: MTCC 2470, 24 h
[13] = tested on: Staphylococcus aureus; assay: Bactericidal activity against Staphylococcus aureus MLS16 MTCC 2940 after 24 hrs by serial dilution method; assay type: functional; details: MLS16 MTCC 2940, 24 h
[14] = tested on: Bacillus subtilis; assay: Bactericidal activity against Bacillus subtilis MTCC 121 after 24 hrs by serial dilution method; assay type: functional; details: MTCC 121, 24 h
[15] = tested on: Micrococcus luteus; assay: Antimicrobial activity against Micrococcus luteus MTCC 2470 after 24 hrs by well diffusion method; assay type: functional; details: MTCC 2470, 24 h
[16] = tested on: Staphylococcus aureus; assay: Antibiofilm activity against Staphylococcus aureus MLS16 MTCC 2940 after 24 hrs by crystal violet staining based assay; assay type: functional, organism-based; details: MLS16 MTCC 2940, 24 h
[17] = tested on: Raoultella planticola; assay: Antimicrobial activity against Klebsiella planticola MTCC 530 after 24 hrs by well diffusion method; assay type: functional; details: MTCC 530, 24 h
[18] = tested on: Raoultella planticola; assay: Antibiofilm activity against Klebsiella planticola MTCC 530 after 24 hrs by crystal violet staining based assay; assay type: functional, organism-based; details: MTCC 530, 24 h
[19] = tested on: Micrococcus luteus; assay: Antibiofilm activity against Micrococcus luteus MTCC 2470 after 24 hrs by crystal violet staining based assay; assay type: functional, organism-based; details: MTCC 2470, 24 h
[20] = tested on: Bacillus subtilis; assay: Antimicrobial activity against Bacillus subtilis MTCC 121 after 24 hrs by well diffusion method; assay type: functional; details: MTCC 121, 24 h
[21] = tested on: Raoultella planticola; assay: Bactericidal activity against Klebsiella planticola MTCC 530 after 24 hrs by serial dilution method; assay type: functional; details: MTCC 530, 24 h
[22] = tested on: A549; assay: Cytotoxicity against human A549 cells; assay type: functional, cell-based
[23] = Cytotoxicity against human PC3 cells; assay type: functional, cell-based; details: PC-3

Row | SMILES | MIC [2] [µg/mL] | MIC [3] [µg/mL] | IC50 [4] [nM] | MBC [6] [µg/mL] | MIC [7] [µg/mL] | MIC [8] [µg/mL] | MIC [9] [µg/mL] | IC50 [10] [nM] | MBC [12] [µg/mL] | MBC [13] [µg/mL] | MBC [14] [µg/mL] | MIC [15] [µg/mL] | IC50 [16] [nM] | MIC [17] [µg/mL] | IC50 [18] [nM] | IC50 [19] [nM] | MIC [20] [µg/mL] | MBC [21] [µg/mL] | also measured
1 | O=C1C=C(N2CC2)C(=O)C(c2cc(-c3ccc(C(=O)N4CCCCC4)s3)on2)=C1N1CC1 | 15.6 (≈ 34.6 µM) | > 125 | 11200 | 31.2 (≈ 69.3 µM) | 15.6 (≈ 34.6 µM) | > 125 | 15.6 (≈ 34.6 µM) | 2800 | 125 (≈ 277 µM) | 62.5 (≈ 139 µM) | 15.6 (≈ 34.6 µM) | 62.5 (≈ 139 µM) | 9800 | 7.8 (≈ 17.3 µM) | 5400 | 35600 | 3.9 (≈ 8.66 µM) | 15.6 (≈ 34.6 µM) | IC50 [1]: 21300 nM; IC50 [5]: 1700 nM; Ratio IC50 [11]: 12
2 | CO[C@@]12[C@H](COC(N)=O)C3=C(C(=O)C(C)=C(N)C3=O)N1C[C@@H]1N[C@@H]12 [MITOMYCIN] | > 500 | 1.9 (≈ 5.68 µM) | 1100 | 3.9 (≈ 11.7 µM) | 1.9 (≈ 5.68 µM) | 3.9 (≈ 11.7 µM) | 1.9 (≈ 5.68 µM) | 300 | 1.9 (≈ 5.68 µM) | 1.9 (≈ 5.68 µM) | 0.9 (≈ 2.69 µM) | 0.9 (≈ 2.69 µM) | 900 | 1.9 (≈ 5.68 µM) | 1100 | 900 | 0.45 (≈ 1.35 µM) | 3.9 (≈ 11.7 µM) | IC50 [22]: 500 nM; IC50 [23]: 500 nM
